Reference: publication doi:10.1101/2025.05.27.25328359, “OSBPL11 is an African-specific locus associated with 25-hydroxyvitamin D concentrations and cardiometabolic health” (medRxiv, 2025)
pKi: −log10 of the molar value.

Target: T1, OSBPL11 (OSBPL11-myc-His) (Homo sapiens, UniProt Q9BXB4)
T1 construct: full length, C-terminal myc-His tag (pcDNA3.1(+)myc/his C), transiently expressed in 293T cells; 100,000 g supernatant (S100) of lysate, not purified
T1 sequence (Q9BXB4 1-747): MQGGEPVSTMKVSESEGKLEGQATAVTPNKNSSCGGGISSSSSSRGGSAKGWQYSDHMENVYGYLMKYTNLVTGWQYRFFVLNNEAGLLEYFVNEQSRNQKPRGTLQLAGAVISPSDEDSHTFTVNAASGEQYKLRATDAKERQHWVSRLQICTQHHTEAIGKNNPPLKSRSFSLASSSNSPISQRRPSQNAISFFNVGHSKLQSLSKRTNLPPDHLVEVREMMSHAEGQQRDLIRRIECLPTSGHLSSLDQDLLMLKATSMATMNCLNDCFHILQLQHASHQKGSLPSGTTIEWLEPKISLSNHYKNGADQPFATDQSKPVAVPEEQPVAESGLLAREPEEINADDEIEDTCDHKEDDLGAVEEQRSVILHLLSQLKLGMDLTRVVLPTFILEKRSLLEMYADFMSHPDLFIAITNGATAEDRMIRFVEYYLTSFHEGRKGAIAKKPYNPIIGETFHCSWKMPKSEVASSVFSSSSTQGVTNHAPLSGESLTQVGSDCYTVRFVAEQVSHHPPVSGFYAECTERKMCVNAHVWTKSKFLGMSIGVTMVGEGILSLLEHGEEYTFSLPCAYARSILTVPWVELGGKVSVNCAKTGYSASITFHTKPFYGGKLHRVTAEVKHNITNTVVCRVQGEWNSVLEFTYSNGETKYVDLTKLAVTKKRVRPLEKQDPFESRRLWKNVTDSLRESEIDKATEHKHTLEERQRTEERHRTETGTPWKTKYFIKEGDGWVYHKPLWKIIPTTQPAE
Experiment: [3H]-25-hydroxycholesterol competition binding, charcoal/dextran, S100 lysate
Format: biochemical

pKi: 7.49
Structure (SMILES): C[C@H](CCCC(C)(C)O)[C@H]1CC[C@H]2[C@@H]3CC=C4C[C@@H](O)CC[C@]4(C)[C@H]3CC[C@]12C [25-hydroxycholesterol]
